In patent publication US5187074A, “Method of hydroxylation with ATCC 55086” (Merck & Co., Inc., priority 1992, dated 1993):

Target: T1, HIV protease (Human immunodeficiency virus type 1 group M subtype B, UniProt P12497)
T1 construct: HIV protease expressed in Escherichia coli; made in house; host or cells: Escherichia coli
Experiment: Assay for Inhibition of Recombinant HIV Protease (APRIN 2.1)
Assay type: biochemical
Details: pH 5.5, 60 min, 37° C.
Protocol: Assay for Inhibition of Recombinant HIV Protease (APRIN 2.1)
Inhibition studies were performed on the reaction of the HIV protease expressed in Escherichia coli with a tritiated peptide substrate [^3 H]-acetyl-Val-Ser-Gln-Asn-(beta-napthyl-Ala)-Pro-Ile-Val-Gln-Gly-Arg-Arg-NH2 (MW 1800). The two arginine residues at the carboxyl terminus give this peptide an overall positive charge at acidic pH and enable it to bind to the H^+ form of DOWEX AG-50W-X8 resin and similar resins.
Aliquots of 25 μl containing 6.0-8.0 nM HIV protease in assay buffer (100 mM sodium acetate, pH 5.5 and 0.1% BSA) are placed in assay tubes. The reaction is initiated by addition of 25 μl aliquots of 4.2 μM tritiated peptide substrate in 100 mM sodium acetate, pH 5.5. After incubation for 60 min at 37° C., the reaction is stopped with 100 μl of 5% H3 PO4, then analysed by application of column chromatography.

Row | Compound | inhibition at 0.000625 µg/mL (0.625 ng/ml, control) | inhibition at 0.00125 µg/mL (1.25 ng/ml, control) | inhibition at 0.0025 µg/mL (2.5 ng/ml, control) | inhibition at 0.005 µg/mL (5 ng/ml, control) | inhibition at 0.01 µg/mL (10 ng/ml, control) | inhibition at 0.0116 µg/mL (11.6 ng/ml, major metabolite from culture S-29-145, read-out: APRIN 2.1 Act. (% Inhib.))
1 | CC(C)(C)OC(=O)N[C@@H](Cc1ccccc1)[C@@H](O)C[C@@H](Cc1ccc(OCCN2CCOCC2)cc1)C(=O)N[C@H]1c2ccccc2C[C@H]1O [L-689,502, N-(cis-2(R)-hydroxy-1(S) -indanyl)-5(S)-(1,1-dimethylethoxycarbonylamino)-4(S)-hydroxy-6-phenyl-2(R)-[(4-(2-(4-morpholinyl)ethoxy)phenyl)methyl]-hexanamide] | -2% | 21% | 54% | 69% | 86% | –
2 | CC(C)(CO)OC(=O)N[C@@H](Cc1ccccc1)[C@@H](O)C[C@@H](Cc1ccc(OCCN2CCOCC2)cc1)C(=O)N[C@H]1c2ccccc2C[C@H]1O [L-697,811] | – | – | – | – | – | 92%
